Here are results for 1 compound from US20200206349A1, “Immunothermosensitive Composite, Kit For Treating Cancer, And Use Thereof” (National Tsing Hua University, priority 2018, published 2020).

Molecules are shown by their SMILES.

For one series, the system named is CT26 cells. The series is described as follows: Cytotoxicity, CellTiter-Glo cell viability assay. The class given is cell-based, murine. The following applies: 0.625 μg/mL to 10 μg/mL, 24 hours. The protocol:
The experiment further includes untreated CT26 cells, the CT26 cells treated with free R848 or the CT26 cells treated with the carrier PANI-GCS as a control. […] The CT26 cells are seeded in 96-well plates at 1×10^4 cells/well for 24 hours. […] The viability of the CT26 cells is evaluated by the CellTiter-Glo® Luminescent Cell Viability Assay kit (Promega, Madison, Wis., USA).
A general note: ATP-based viability assays read luminescence as a measure of living cells.

Another series deals with BMDCs. The series is described as follows: Proinflammatory cytokines secreted by BMDCs (bead arrays). Type of series: cell-based, Balb/c mice. How it is done:
The dendritic cells used in the experiment are dendritic cells differentiated from bone marrow cells (BMDC). […] After 10 days, suspended immature BMDCs are collected for further experiments. […] The cellular uptake of the f-PANI-GCS-R848 by the BMDCs is measured by flow cytometry and immunofluorescence staining. The experiment further includes the BMDCs treated with medium only as a control. Flow cytometry is performed to measure the cell uptake of f-PANI-GCS-R848 by BD Accuri™ C6 flow cytometer (BD Biosciences, San Jose, Calif., USA), and data are analyzed using FlowJo (Treestar, Ashland, Oreg., USA). In immunofluorescence staining, LysoTracker is used as a cell marker for endosome. The BMDCs are incubated with LysoTracker™ Red DND-99 (Thermo Fischer Scientific) containing medium for 2 hours, washed, and stained with 4′,6-diamidino-2-phenylindole (DAPI) in PBS for 10 minutes. Finally, the BMDCs are observed and imaged under a confocal laser scanning microscopy (CLSM, LSM 780, Carl Zeiss, Jena, Germany). […] The BMDCs and the culture supernatants are then collected separately. The expression of mature dendritic cell markers CD80 and CD86 in the treated BMDCs are analyzed by flow cytometry, and the concentrations of inflammatory cytokines secreted by mature dendritic cells in the supernatant are measured by […] beads arrays (CBA, BD Bioscience). The experiment further includes the BMDCs treated with medium only as negative controls (represented as “PBS”). The flow cytometry includes follow steps. The BMDCs are incubated with APC-conjugated anti-mouse CD80 antibody (eBioscience) or FITC-conjugated anti-mouse CD86 Antibody (eBioscience), and then analyzed by BD Accuri™ C6 flow cytometer.

Another series deals with CT26 primary tumor. The series is described as follows: Animal treatment test: primary tumor size and survival. The note with it: without NIR; treated day 14, 21, 28. The class given is in vivo, Balb/c mice. How it is done: Experimental animals used in the experiments are Balb/c mice (6-8 weeks old), which are purchased from BioLASCO Taiwan Co., Ltd. (Taipei, Taiwan). All the animal experiments are performed according to “Guide for the Care and Use of Laboratory Animals” developed by the Institute of Laboratory Animal Resources, National Research Council. Balb/c mice are inoculated with 1×10^6 CT26 cells subcutaneously on their right flanks (primary tumor). Fourteen days later when the tumor diameter is about 5 mm (or the tumor volumes reach 150-200 mm^3), the Balb/c tumor mice are established and further used to test the cancer treatment effects on the immunothermosensitive composition and the kit for treating cancer of the present disclosure, and whether the immunothermosensitive composition and the kit for treating cancer of the present disclosure can achieve the dual effects of hyperthermia therapy and immunotherapy.
Further, the cancer treatment effects on the immunothermosensitive composition and the kit for treating cancer of the present disclosure is confirmed in the experiment. […] The size of each primary tumor, which is estimated as length×width×height×π/6, is assessed using a pair of caliper every 2-3 days. […] The Balb/c tumor mice with the rechallenged tumor are no longer treated, but the size of each rechallenged tumor is observed and recorded. […]

The mark [1] stands for this setting: at 24 hours, 5 μg/mL free R848, 50 μg/mL PANI-GCS-R848.
[2] abbreviates: at 48 hours and 72 hours (after 24 hours).

Turning to `CCOCc1nc2c(N)nc3ccccc3c2n1CC(C)(C)O` [R848, resiquimod], the “cytotoxicity (cell viability)” value in the series with CT26 cells is “not significantly cytotoxic”. For the same compound, the IL-6 secretion entry in the series on BMDCs (setting [1]) is reported as “notable levels”; in the series with BMDCs (setting [2]), “do not change significantly”. Also, the figures for the TNF-α secretion entry in the series with BMDCs (setting [1]) and in the series on BMDCs (setting [2]) were “notable levels” and “do not change significantly”, respectively. In addition, the “growth of the primary tumor” value with CT26 primary tumor is “slightly delayed”.
